# In US20070128217A1 (priority 2003, published 2007):
# Legend:
# [1] = tested on: rabbit serum obtained by immunizing a rabbit with the SARS-CoV strain Frankfurt 1; assay type: binding; set-up: Binding of a rabbit serum to linear peptides / Binding of a rabbit serum to looped peptides / Rabbit serum linear peptides / Rabbit serum looped peptides / Binding of a rabbit serum to linear peptides of protein N of SARS-CoV Urbani (Rabbit serum linear peptides) / Binding of a rabbit serum to looped/cyclic peptides of protein N of SARS-CoV Urbani (Rabbit serum looped peptides): unit not given here
# [2] = tested on: recombinant human anti-SARS-CoV antibody 03-018; assay type: binding; set-up: Binding of antibody 03-018 to linear peptides of the N protein of SARS-CoV Urbani / Binding of antibody 03-018 to looped/cyclic peptides of the N protein of SARS-CoV Urbani: unit not given here
# [3] = tested on: control sera (pooled serum of ten healthy LUMC hospital workers; commercial negative donor pooled serum from the Dutch bloodbank); assay type: binding, human; set-up: Binding of Control serum LUMC to linear peptides / Binding of Control serum Blood-bank to linear peptides / Binding of Control serum LUMC to looped peptides / Binding of Control Serum Blood-Bank to Looped peptides / Binding of Control serum LUMC to linear peptides of the protein M of SARS-CoV Urbani / Binding of Control serum Blood-bank to linear peptides of the protein M of SARS-CoV Urbani / Binding of Control serum LUMC to looped peptides of the protein M of SARS-CoV Urbani / Binding of Control Serum Blood-Bank to Looped peptides of the protein M of SARS-CoV Urbani: unit not given here
# [4] = tested on: antibodies in sera from SARS patients (sera 1a, 1b, 2, 6, 37, 62, London, SARS-yellow, SARS-green); assay type: binding, human; set-up: Binding of serum 6 to linear peptides of protein X1 of SARS-CoV Urbani / Binding of serum 37 to linear peptides of protein X1 of SARS-CoV Urbani / Binding of serum 6 to looped/cyclic peptide (PEPSCAN-ELISA) / Binding of serum 37 to looped/cyclic peptide (PEPSCAN-ELISA) / Binding of serum 37 to looped/cyclic peptides of protein X1 of SARS-CoV Urbani / Binding of serum 6 to linear peptides of protein X2 / Binding of serum 37 to linear peptides of protein X2 / Binding of serum 37 to looped/cyclic peptides of protein X2 of SARS-CoV Urbani / Binding of serum 6 to linear peptides of protein M of SARS-CoV Urbani / Binding of serum 37 to linear peptides of protein M of SARS-CoV Urbani / Binding of serum 6 to looped/cyclic peptides of protein M of SARS-CoV Urbani / Binding of serum 37 to looped/cyclic peptides of protein M of SARS-CoV Urbani / Binding of serum 6 to linear peptides of protein X3 of SARS-CoV Urbani / Binding of serum 37 to linear peptides of protein X3 of SARS-CoV Urbani / Binding of serum 37 to looped/cyclic peptides of protein X3 of SARS-CoV Urbani / Binding of serum 6 to linear peptides of protein X4 of SARS-CoV Urbani / Binding of serum 37 to linear peptides of protein X4 of SARS-CoV Urbani / Binding of serum 37 to looped/cyclic peptides of protein X4 of SARS-CoV Urbani / Binding of serum 6 to linear peptides of protein X5 of SARS-CoV Urbani / Binding of serum 37 to linear peptides of protein X5 of SARS-CoV Urbani / Binding of serum 37 to looped/cyclic peptides of protein X5 of SARS-CoV Urbani / Binding of serum 6 to linear peptides of protein N of SARS-CoV Urbani / Binding of serum 37 to linear peptides of protein N of SARS-CoV Urbani / Binding of serum 6 to linear peptide (PEPSCAN-ELISA) / Binding of serum 1a to looped/cyclic peptides of protein N of SARS-CoV Urbani / Binding of serum 1b to looped/cyclic peptides of protein N of SARS-CoV Urbani / Binding of serum 2 to looped/cyclic peptides of protein N of SARS-CoV Urbani / Binding of serum 6 to looped/cyclic peptides of protein N of SARS-CoV Urbani / Binding of serum 37 to looped/cyclic peptides of protein N of SARS-CoV Urbani / Binding of serum 62 to looped/cyclic peptides of protein N of SARS-CoV Urbani / Binding of serum London to looped/cyclic peptides of protein N of SARS-CoV Urbani / Binding of serum SARS-green to looped/cyclic peptides of protein N of SARS-CoV Urbani: unit not given here
Sequence,Binding of a rabbit serum to linear peptides of protein N of SARS-CoV Urbani (Rabbit serum linear peptides) [1],Binding of a rabbit serum to looped/cyclic peptides of protein N of SARS-CoV Urbani (Rabbit serum looped peptides) [1],Binding of antibody 03-018 to linear peptides of the N protein of SARS-CoV Urbani [2],Binding of antibody 03-018 to looped/cyclic peptides of the N protein of SARS-CoV Urbani [2],Binding of Control Serum Blood-Bank to Looped peptides [3],Binding of Control serum Blood-bank to linear peptides [3],Binding of Control serum LUMC to linear peptides [3],Binding of Control serum LUMC to looped peptides [3],Binding of serum 1a to looped/cyclic peptides of protein N of SARS-CoV Urbani [4],Binding of serum 1b to looped/cyclic peptides of protein N of SARS-CoV Urbani [4],Binding of serum 2 to looped/cyclic peptides of protein N of SARS-CoV Urbani [4],Binding of serum 6 to looped/cyclic peptides of protein N of SARS-CoV Urbani [4],Binding of serum 37 to looped/cyclic peptides of protein N of SARS-CoV Urbani [4],Binding of serum 62 to looped/cyclic peptides of protein N of SARS-CoV Urbani [4],Binding of serum London to looped/cyclic peptides of protein N of SARS-CoV Urbani [4],Binding of serum SARS-green to looped/cyclic peptides of protein N of SARS-CoV Urbani [4],Binding of serum SARS-yellow to looped/cyclic peptides of protein N of SARS-CoV Urbani [4],Binding of serum 1a to linear peptides of protein N of SARS-CoV Urbani [4],Binding of serum 1b to linear peptides of protein N of SARS-CoV Urbani [4],Binding of serum 2 to linear peptides of protein N of SARS-CoV Urbani [4],further results
ALLLLDRLNQLESKV,0.1,0.4,0.1,0.3,0.8,0.8,0.7,0.8,0.4,0.3,0.5,0.3,1.0,0.9,0.5,0.7,0.5,–,–,–,Binding of serum 1a to linear peptide (PEPSCAN-ELISA) [4]: 0.2; Binding of serum 1b to linear peptide (PEPSCAN-ELISA) [4]: 0.1; Binding of serum 2 to linear peptide (PEPSCAN-ELISA) [4]: 0.2; Binding of serum 6 to linear peptide (PEPSCAN-ELISA) [4]: 0.1; Binding of serum 37 to linear peptide (PEPSCAN-ELISA) [4]: 0.7; Binding of serum 62 to linear peptide (PEPSCAN-ELISA) [4]: 0.4; Binding of serum London to linear peptide (PEPSCAN-ELISA) [4]: 0.6; Binding of serum SARS-green to linear peptide (PEPSCAN-ELISA) [4]: 0.2; Binding of serum SARS-yellow to linear peptide (PEPSCAN-ELISA) [4]: 0.5
ALNTPKDHIGTRNPN,0.2,0.2,0.1,0.2,0.5,0.8,0.6,0.4,0.4,0.3,0.5,0.3,0.5,0.5,0.3,0.5,0.0,0.3,0.1,0.3,Binding of serum 6 to linear peptides of protein N of SARS-CoV Urbani [4]: 0.2; Binding of serum 37 to linear peptides of protein N of SARS-CoV Urbani [4]: 0.7; Binding of serum 62 to linear peptides of protein N of SARS-CoV Urbani [4]: 0.6; Binding of serum London to linear peptides of protein N of SARS-CoV Urbani [4]: 0.5; Binding of serum SARS-green to linear peptides of protein N of SARS-CoV Urbani [4]: 0.4; Binding of serum SARS-yellow to linear peptides of protein N of SARS-CoV Urbani [4]: 0.5
ALTQHGKEELRFPRG,0.2,0.3,0.2,0.2,0.4,0.9,0.7,0.4,0.2,0.1,0.2,0.1,0.5,0.2,0.3,0.1,0.3,0.3,0.2,0.3,Binding of serum 6 to linear peptides of protein N of SARS-CoV Urbani [4]: 0.2; Binding of serum 37 to linear peptides of protein N of SARS-CoV Urbani [4]: 0.9; Binding of serum 62 to linear peptides of protein N of SARS-CoV Urbani [4]: 0.8; Binding of serum London to linear peptides of protein N of SARS-CoV Urbani [4]: 0.5; Binding of serum SARS-green to linear peptides of protein N of SARS-CoV Urbani [4]: 0.6; Binding of serum SARS-yellow to linear peptides of protein N of SARS-CoV Urbani [4]: 0.6
